Test results: PubChem BioAssay (NCI)
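Assay format: 96-well plates, 48-hour exposure. Abbreviation: GI50, concentration required for 50% inhibition of growth. TGI marks complete inhibition of growth.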

Experiments:
Assay in all cases: growth of human tumour cells (NCI), 48 h
[1] = test system: A549 NSCLC
[2] = test system: BT-549 breast
[3] = test system: COLO 205 colon
[4] = test system: HL-60(TB) leukemia
[5] = test system: K-562 leukemia
[6] = test system: MDA-MB-231 breast
[7] = test system: OVCAR-3 ovarian
[8] = test system: CAKI-1 renal
[9] = test system: CCRF-CEM leukemia
[10] = test system: NCI-H23 lung

Structure (SMILES)	GI50 [1] [µM]	TGI [1] [µM]	GI50 [2] [µM]	TGI [2] [µM]	GI50 [3] [µM]	TGI [3] [µM]	GI50 [4] [µM]	TGI [4] [µM]	GI50 [5] [µM]	TGI [5] [µM]	GI50 [6] [µM]	TGI [6] [µM]	GI50 [7] [µM]	TGI [7] [µM]	TGI [8] [µM]	TGI [9] [µM]	TGI [10] [µM]	GI50 [8] [µM]	GI50 [9] [µM]	GI50 [10] [µM]
Clc1cc(Cl)cc(Nc2ccc3cc(OCCCN4CCOCC4)ccc3n2)c1	3.93	> 100	2.65	9.44	1.78	3.67	2.57	5.96	1.58	4.42	1.81	4.27	2.36	6.4						
C/C(CCn1[nH]c(=O)ccc1=O)=N\OCCCc1ccccc1		> 100						> 100		> 100				> 100	> 100	> 100	> 100			
c1ccc(CSc2nc3ccccc3nc2-c2cccs2)cc1		> 100				> 100		> 100		> 100				> 100		> 100	> 100			
CCOc1ccccc1NC(=O)C(=O)Cc1nc2ccccc2s1		> 100				> 100		> 100						> 100	> 100	> 100	> 100			
[F][Sn]([F])([c]1ccccc1)[c]1ccccc1	2.33	6.45			1.81	3.97	1.01	3.07	0.702	4.96			1.59	3	3.22	3.82	3.7	1.32	0.688	1.85
O=C(CSC(c1ccccc1)c1ccccc1)N/N=C/c1ccco1	1.54	5.28	1.69	2.78	20.3	52			2.16	8.74	1.35	2.87	1.92	3.49	23.2	22	4.46	4.7	2.48	1.6
CC1=CC(=O)C(C(O)(C(F)(F)F)C(F)(F)F)C(C)(C)C1 (stereo not drawn)		> 10				> 10		> 10		> 10		> 10		> 10	> 10	> 10	> 10			
O=C(N/N=C/c1ccc([N+](=O)[O-])o1)c1ccc(O)cc1	4.71	> 100	10.7	28	4.63	16.1	2.48	6.9			10.8	> 100	8.33	36.1	> 100	70.5	11.4	7.26	0.804	2.97
O=C(O)CSc1n[nH]c(Cc2ccccc2)n1		> 100						> 100		> 100				> 100	> 100	> 100	> 100			
O=C(CCCN1CCC2(CC1)C(=NC1CCCCC1)NC(=O)N2c1ccccc1)c1ccc(F)cc1		> 100				31.2		57.4		> 100		26.1		31.6	> 100	64.4	48.1			
CC1CN1c1c(C(=O)/C=C/c2ccc(Cl)cc2)c(-c2ccccc2)nn(C)c1=O (stereo not drawn)		> 10				3.67		5.22		8.8				6.79	> 10	5.2	6.97			
CN(C)CCSc1nccc(-c2cc3ccccc3s2)n1		36.6				35.1								> 100	56.7	59.4				
Clc1ccc(N=CNc2ccc(-c3nc4ccccc4o3)cc2)cc1	38	> 100	18.7	43.6	22.7	> 100	38.5	> 100	32.6	> 100	25.6	89.4	11.2	25.3	39.2			15.5		
CO/N=C(/C)c1cccc(Nc2cc(-c3ccccc3)nc3ccc(OC)cc23)c1	23.1	53.9	22.4	46.6	33.1	97.8			2.72	> 100	3.49	17.8			10.9		27.4	3.18		6.08
Nc1ccc2[nH]cc(CCC(=O)O)c2c1		> 100		> 100		> 100		76.5				> 100		> 100	> 100	32.9	> 100			
O=c1c2ccccc2nc(-c2ccccc2)n1NC(=S)Nc1ccccc1		> 100				> 100		> 100		> 100					> 100	> 100	> 100			
Cc1cc(C)n(-c2nnc3n2N=C(c2ccc(-c4ccccc4)cc2)CS3)n1	3.83	> 100	3.69	> 100	2.23	4.77			3.58	> 100	3.22	> 100	2.31	5.55	> 100	> 100	> 100	3.05	3.12	4.79
CC(C(=O)n1c2ccccc2c2ccccc21)N(c1ccccc1)c1ccccc1 (stereo not drawn)		38.5				32		20.6		40.7				31.7	27.7	4.02	34.6			
CC1=C(c2cc(C(=O)Nc3ccc(Cl)cc3)nc(=S)[nH]2)Sc2ccccc2N1		> 100				> 100		> 100		> 100				> 100	> 100	> 100	> 100			
O=C(O)CN(c1ccccc1)S(=O)(=O)c1ccc([N+](=O)[O-])cc1		> 100				> 100		> 100		> 100				> 100	> 100	> 100	> 100			
